Experiments:
MERTK = target: T1, MERTK (Homo sapiens, UniProt Q12866); experiment: TR-FRET kinase activity assay, MERTK; assay type: biochemical; settings: for IC50: TR-FRET activity assay, ATP at Km, 60 minutes, read-out: Mer IC50; for FLT3/Mer ratio (FLT3 IC50/Mer IC50): ratio of Mer to FLT3: FLT3 IC50/Mer IC50
T1 sequence (Q12866 21-999): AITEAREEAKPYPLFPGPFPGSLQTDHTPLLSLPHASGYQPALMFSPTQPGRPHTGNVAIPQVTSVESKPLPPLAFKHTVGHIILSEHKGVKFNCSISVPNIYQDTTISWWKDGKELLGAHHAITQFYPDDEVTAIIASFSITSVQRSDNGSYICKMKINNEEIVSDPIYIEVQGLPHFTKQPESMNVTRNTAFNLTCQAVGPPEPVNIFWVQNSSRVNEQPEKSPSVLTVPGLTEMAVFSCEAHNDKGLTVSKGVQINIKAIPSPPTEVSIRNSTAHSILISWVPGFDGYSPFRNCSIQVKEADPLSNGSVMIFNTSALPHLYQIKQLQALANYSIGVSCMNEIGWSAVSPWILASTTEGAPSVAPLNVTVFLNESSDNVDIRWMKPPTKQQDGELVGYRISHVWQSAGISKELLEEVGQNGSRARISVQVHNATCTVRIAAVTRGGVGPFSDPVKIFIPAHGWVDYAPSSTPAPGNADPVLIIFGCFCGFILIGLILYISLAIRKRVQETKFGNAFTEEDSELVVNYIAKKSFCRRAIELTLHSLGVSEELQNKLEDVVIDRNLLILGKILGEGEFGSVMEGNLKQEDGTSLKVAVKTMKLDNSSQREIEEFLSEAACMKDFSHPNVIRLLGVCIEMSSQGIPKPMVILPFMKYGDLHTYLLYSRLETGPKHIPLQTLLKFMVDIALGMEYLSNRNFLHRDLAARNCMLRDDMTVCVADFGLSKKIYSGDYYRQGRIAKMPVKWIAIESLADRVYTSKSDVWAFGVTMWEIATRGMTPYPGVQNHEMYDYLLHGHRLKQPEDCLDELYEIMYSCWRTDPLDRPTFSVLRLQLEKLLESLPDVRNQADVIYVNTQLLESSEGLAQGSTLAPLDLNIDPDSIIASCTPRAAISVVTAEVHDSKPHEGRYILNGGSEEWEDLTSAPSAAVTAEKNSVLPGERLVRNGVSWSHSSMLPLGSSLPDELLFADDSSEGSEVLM
Outline: (§1)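 Compounds were tested against each kinase with ATP set at its own Km and a labelled tyrosine peptide substrate. Following one hour at room temperature in buffer containing 10 mM MgCl2 and 1 mM DTT, phosphorylated product was detected by Europium antibody TR-FRET after EDTA quench, and IC50 values were calculated.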

TYRO3 = target: T2, TYRO3 (Homo sapiens, UniProt Q06418); experiment: TR-FRET kinase activity assay, TYRO3; assay type: biochemical; settings: ATP at Km, 60 minutes
T2 sequence (Q06418 41-890): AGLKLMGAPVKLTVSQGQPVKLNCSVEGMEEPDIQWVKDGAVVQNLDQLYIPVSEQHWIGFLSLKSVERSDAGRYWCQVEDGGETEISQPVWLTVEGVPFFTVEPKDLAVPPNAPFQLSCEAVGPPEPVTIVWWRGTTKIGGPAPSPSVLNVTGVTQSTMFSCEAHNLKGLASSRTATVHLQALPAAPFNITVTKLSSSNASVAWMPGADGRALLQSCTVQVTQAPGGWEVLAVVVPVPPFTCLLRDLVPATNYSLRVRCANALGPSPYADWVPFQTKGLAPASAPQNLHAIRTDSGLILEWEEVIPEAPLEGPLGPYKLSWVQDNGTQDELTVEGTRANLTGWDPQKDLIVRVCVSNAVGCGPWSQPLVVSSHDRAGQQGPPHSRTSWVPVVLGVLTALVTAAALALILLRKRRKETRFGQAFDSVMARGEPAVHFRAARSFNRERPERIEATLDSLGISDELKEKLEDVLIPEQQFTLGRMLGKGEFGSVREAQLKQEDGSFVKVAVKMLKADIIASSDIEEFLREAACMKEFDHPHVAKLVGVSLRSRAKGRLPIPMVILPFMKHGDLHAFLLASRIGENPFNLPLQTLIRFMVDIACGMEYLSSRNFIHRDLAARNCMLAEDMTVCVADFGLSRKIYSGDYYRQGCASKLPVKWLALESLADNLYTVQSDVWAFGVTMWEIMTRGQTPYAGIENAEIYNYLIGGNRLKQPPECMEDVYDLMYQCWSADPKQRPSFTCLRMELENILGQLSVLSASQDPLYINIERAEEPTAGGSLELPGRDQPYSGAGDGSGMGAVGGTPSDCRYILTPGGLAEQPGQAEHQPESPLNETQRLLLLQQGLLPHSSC
Outline: as §1

Structure (SMILES)	IC50 (MERTK) [nM]	FLT3/Mer ratio (FLT3 IC50/Mer IC50) (MERTK)	IC50 (TYRO3) [nM]
C[C@@H](CC(F)(F)F)Nc1ncc2c(-c3cnn(C4COC4)c3)cc([C@H]3CC[C@H](O)CC3)n2n1 [Compound 269]	≤ 100	++ (“++” represents a ratio of between 10 and 100)	≤ 100
COC[C@H](C)Nc1ncc2c(-c3ccc(C(=O)N4CCCC4)cc3)cc([C@H]3CC[C@H](O)CC3)n2n1 [Compound 196]	≤ 100	+++ (“+++” represents a ratio of >100)	≤ 100
COC[C@H](C)Nc1ncc2c(-c3ccnc(N4CCOCC4)c3)cc([C@H]3CC[C@H](O)CC3)n2n1 [Compound 259]	≤ 100	+++ (“+++” represents a ratio of >100)	≤ 100
COC[C@H](C)Nc1ncc2c(-c3cnn(C(F)F)c3)cc([C@H]3CC[C@H](O)CC3)n2n1 [Compound 207]	≤ 100	+++ (“+++” represents a ratio of >100)	≤ 100
COC[C@H](C)Nc1ncc2c(-c3cnc(C)o3)cc([C@H]3CC[C@H](O)CC3)n2n1 [Compound 261]	≤ 100	+++ (“+++” represents a ratio of >100)	≤ 100
COC[C@H](C)Nc1ncc2c(-c3cn(C)nc3C)cc([C@H]3CC[C@H](O)CC3)n2n1 [Compound 260]	≤ 100	+++ (“+++” represents a ratio of >100)	≤ 100
COC[C@H](C)Nc1ncc2c(-c3cncc(C(=O)N4CCN(C)CC4)c3)cc([C@H]3CC[C@H](O)CC3)n2n1 [Compound 234]	≤ 100	+++ (“+++” represents a ratio of >100)	≤ 100
COC[C@H](C)Nc1ncc2c(-c3cn(C[Si](C)(C)C)nn3)cc([C@H]3CC[C@H](O)CC3)n2n1 [Compound 248]	≤ 100	+++ (“+++” represents a ratio of >100)	≤ 100
COCC(C)Nc1ncc2c(-c3ccc(-c4nnc(C)o4)cc3)cc(C3CCC(O)CC3)n2n1 (stereo not drawn) [Compound 198]	≤ 100	+++ (“+++” represents a ratio of >100)	≤ 100
COC[C@H](C)Nc1ncc2c(-c3cc(C)ccn3)cc([C@H]3CC[C@H](O)CC3)n2n1 [Compound 257]	≤ 100	+++ (“+++” represents a ratio of >100)	100 to 1000
COC[C@H](C)Nc1ncc2c(-c3cnn([C@@H]4CCOC4)c3)cc([C@H]3CC[C@H](O)CC3)n2n1 [Compound 242]	≤ 100	+++ (“+++” represents a ratio of >100)	≤ 100
COC[C@H](C)Nc1ncc2c(-c3cncc(C)c3)cc([C@H]3CC[C@H](O)CC3)n2n1 [Compound 231]	≤ 100	+++ (“+++” represents a ratio of >100)	≤ 100
COC[C@H](C)Nc1ncc2c(-c3ccc(C)cn3)cc([C@H]3CC[C@H](O)CC3)n2n1 [Compound 258]	≤ 100	++ (“++” represents a ratio of between 10 and 100)	≤ 100
COC[C@H](C)Nc1ncc2c(-c3ccn(C)n3)cc([C@H]3CC[C@H](O)CC3)n2n1 [Compound 208]	≤ 100	+++ (“+++” represents a ratio of >100)	≤ 100
CCCCC[C@H](C)Nc1ncc2c(NC3CCN(C)CC3)cc([C@H]3CC[C@H](O)CC3)n2n1 [Compound 107]	≤ 100	+++ (“+++” represents a ratio of >100)	≤ 100
C[C@H](Nc1ncc2c(-c3ccc(CN4CCOCC4)cc3)cc([C@H]3CC[C@H](O)CC3)n2n1)[C@@H]1CCCO1 [Compound 205]	≤ 100	+++ (“+++” represents a ratio of >100)	≤ 100
COCC(C)Nc1ncc2c(-c3ccc4nccn4c3)cc(C3CCC(O)CC3)n2n1 (stereo not drawn) [Compound 193]	≤ 100	+++ (“+++” represents a ratio of >100)	≤ 100
